Laboratory results from publication PMC8350397, “GSK137, a potent small-molecule BCL6 inhibitor with in vivo activity, suppresses antibody responses in mice” (The Journal of Biological Chemistry, 2021).

Columns and labels:
mouse BCL6 and SMRT = target: T1, mouse BCL6 and SMRT (Mus musculus, UniProt P41183, C67R/C84N/C8Q); experiment: BCL6 TR-FRET assay, mouse BCL6 and SMRT; format: binding
T1 construct: BCL6-Flag-6H-Avi (5-129) C8Q, C67R, C84N proteins; Flag (C); 6H (His6) (C); made in house; host or cells: E. coli
Protocol: (§1) Human, mouse and rat BCL6-Flag-6H-Avi (5-129) C8Q, C67R, C84N proteins were expressed in E. coli according to standard procedures and purified on Ni-NTA, followed by ion exchange on a Source 30Q column and size exclusion on an Superdex 200 column in a buffer of 20 mM Tris, 250 mM NaCl, 5 mM DTT, 5% glycerol, pH 8.5. All protein purities were estimated to be >90% by SDS-PAGE and the expected masses were confirmed by MS analysis. For TR-FRET assay protein was enzymatically biotinylated by treatment of protein at 100 µM with a 2 fold molar excess of biotin in the presence of 2 mM ATP and 1 µM BirA enzyme in a buffer of 50 mM bicine pH 8.3, 10 mM MgCl2 at 30 °C for 1 hour, followed by extensivedialysis against 50 mM Tris-Cl pH 8.0, 100 mM NaCl, 1 mM DTT using a 3.5 kDa cut-off membrane. Biotinylation was confirmed by MS analysis and concentration was determined by Bradford assay, after which protein was stored in aliquots at -80 °C.
(§2) Acceptor-labelled SMRT peptide H2N-[…](D2)-OH was dissolved in water by mass to give a 500 µM stock solution which was stored at -20 °C. Acceptor-labelled NCOR peptide H2N-[…](Alexa Fluor 647)-OH and acceptor-labelled BCOR peptide H2N-[…](Alexa Fluor 647)-OH were dissolved to a nominal concentration of 1 mM in DMSO, and stock solution concentration was determined by absorbance at 650 nm using an extinction coefficient of 270,000 M-1cm^-1. […]

[1] = target: human serum albumin (HSA) (Homo sapiens, UniProt P02768); experiment: Binding to human serum albumin; format: in vitro ADME
[2] = Tolerability in the immunization model (body weight, signs of toxicity, cytokines); format: in vivo, mouse
Protocol: (§3) Male CD1 mice (30–40 g, 8–9 weeks of age) were randomized into study treatment groups, housed individually and allowed to acclimatize under standard laboratory conditions for a minimum of 5 days prior to commencement of the study. Mice received food and water ad libitum. The experiment was performed in a certified dedicated in vivo experimental laboratory at the GlaxoSmithKline Medicines Research Centre, Stevenage, United Kingdom. The four treatment groups were (1) unimmunized and untreated (naive group) (n = 4); (2) intraperitoneal vehicle (n = 13), (3) GSK137 15 mg/kg (n = 14), and (4) GSK137 30 mg/kg (n = 14). Groups (2) to (4) were given intraperitoneal immunization with TNP–KLH (100 μg) on day 0, vehicle was 1% methylcellulose in water + 0.1% sodium lauryl sulphate, and compound or vehicle was given to groups (2) to (4) by oral gavage three times per day from day −1 to day +12. Blood samples were collected by tail vein for measurement of compound, IgM and IgG levels on days 0, 5, 8, and 12 ahead of immunization/first daily dose. On day 8, blood samples were also taken (n = 7) at 0.5, 1.5, 3, 5, or 7 h after first daily dose. On day 12, spleens were collected, weighed, and placed into Dulbecco's modified Eagle's medium on wet ice for analysis by flow cytometry.
To determine cytokine and chemokine levels plasma samples were analysed by electrochemiluminescence assay using a custom mouse multiplex kit (K15355K-4, Meso Scale Diagnostics (MSD), Rockville, MD, USA) to measure IFNγ, IL-6, IL-10, TNF, MCP-1, KC, IL-12, IL1b, IL-13 and IL17a according to the manufacturer’s protocol. Plates were read using an MSD Sector Imager 6000 and analysed with Discovery workbench software v4.0.11, cytokine data were back-fitted to the MSD standard curve.

rat BCL6 and SMRT = target: T2, rat BCL6 and SMRT (Rattus norvegicus, UniProt B2GUV8, C67R/C84N/C8Q); experiment: BCL6 TR-FRET assay, rat BCL6 and SMRT; format: binding
T2 construct: BCL6-Flag-6H-Avi (5-129) C8Q, C67R, C84N proteins; Flag (C); 6H (His6) (C); made in house; host or cells: E. coli
Protocol: as §1, §2

[3] = target: T3, human BCL6 BTB-POZ domain (nuclear receptor co-repressor 1 peptide) (Homo sapiens, UniProt P41182, C67R/C84N/C8Q); experiment: BCL6 TR-FRET assay, NCOR peptide displacement; format: binding; conditions: NCOR1 peptide, read-out: pIC50 Human TR-FRET nuclear receptor co-repressor 1 (converted)
T3 construct: BCL6-Flag-6H-Avi (5-129) C8Q, C67R, C84N proteins; Flag (C); 6H (His6) (C); made in house; host or cells: E. coli
Protocol: as §1, §2

[4] = Pharmacokinetics in blood during the immunization study; format: in vivo; conditions: male, CD1, mouse, whole blood, po; for AUC: daily steady state, from simulated profiles; for Tmax: day 8; for Cmax: day 8, blood
Protocol: as §3
Mouse blood/water (50/50) samples were analyzed for GSK137 using an analytical method based on protein precipitation, followed by HPLC/MS–MS analysis. The lower limit of quantification for GSK137 was 1.2 ng/ml with a higher limit of quantification of 3000 ng/ml. A two-compartment PK model was used to describe the measured composite mean steady-state oral concentration–time profiles. A three times per day dose simulation was performed using the two-compartment PK model parameters generated to simulate the repeat dose concentration–time profile. All modelings were conducted in Phoenix64 (WinNonLin) version 8.1 (Pharsight).

Sequence of human serum albumin (HSA) (P02768 25-609): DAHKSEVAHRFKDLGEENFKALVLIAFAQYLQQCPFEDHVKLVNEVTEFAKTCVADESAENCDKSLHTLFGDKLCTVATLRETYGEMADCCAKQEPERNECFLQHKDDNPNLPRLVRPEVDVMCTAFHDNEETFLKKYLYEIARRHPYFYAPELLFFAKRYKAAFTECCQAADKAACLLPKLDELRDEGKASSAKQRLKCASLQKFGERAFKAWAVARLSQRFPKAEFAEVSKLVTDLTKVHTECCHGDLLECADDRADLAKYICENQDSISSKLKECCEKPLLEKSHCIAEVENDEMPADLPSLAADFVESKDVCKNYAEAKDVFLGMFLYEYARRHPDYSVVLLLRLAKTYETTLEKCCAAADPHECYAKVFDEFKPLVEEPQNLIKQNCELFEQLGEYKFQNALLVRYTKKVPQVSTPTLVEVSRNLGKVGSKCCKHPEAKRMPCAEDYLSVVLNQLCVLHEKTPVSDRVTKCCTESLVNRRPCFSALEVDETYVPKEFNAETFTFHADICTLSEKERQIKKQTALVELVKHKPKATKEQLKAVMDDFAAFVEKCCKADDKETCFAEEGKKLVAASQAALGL

SMILES: Cc1ncccc1[C@H]1C[C@@H](c2cccc3nc(N)ccc23)Nc2c(F)cnn21 [GSK137, 5-((5S,7R)-3-Fluoro-7-(2-methylpyridin-3-yl)-4,5,6,7-tetrahydropyrazolo[1,5-a]pyrimidin-5-yl)quinolin-2-amine]
- pIC50 Mouse TR-FRET SMRT (mouse BCL6 and SMRT): 7.8
- HSA binding [1]: 91%
- mouse weights vs vehicle group ([2]; 15 and 30 mg/kg orally TID, over the experiment): did not vary significantly
- overt signs of toxicity ([2]; at the doses used (15 and 30 mg/kg)): no overt signs of toxicity
- levels of a panel of cytokines vs vehicle ([2]; mouse, in vivo): either undetectable or, if detectable, did not differ significantly
- pIC50 Rat TR-FRET SMRT (rat BCL6 and SMRT): 7.6
- IC50 [3]: 25.1 nM
- AUC ([4]; 15 mg/kg orally TID): 3400 ng·h/mL
- Tmax ([4]; 15 mg/kg orally TID): 30 min
- Cmax ([4]; 15 mg/kg orally TID): 471 ± 226 ng/mL
- AUC ([4]; 30 mg/kg orally TID): 6810 ng·h/mL
- Tmax ([4]; 30 mg/kg orally TID): 30 min
- Cmax ([4]; 30 mg/kg orally TID): 1340 ± 141 ng/mL
